In the experiment the test system is nuclear p27 in LNCaP-S14 cells. It is filed as cell-based, human.
Where [1] appears, read: primary screening, nuclear p27 in LNCaP-S14 cells.
[2] abbreviates: primary screening, S = strong, M = medium, W = weak by Z score.

Where two headings read alike, the source gives them in different places.

Regarding `CS(=O)(=O)c1ccc(C=CC(=O)Nc2cccc(C(F)(F)F)c2)cc1` [518N13], the “Z score (aver)” value under setting [1] is on record as 5.55. Also, under setting [2], the Clasf result is listed as “S (strong (Z score > 5))”.

Turning to `CCN(CC)c1ccc(NCN2C(=O)c3ccccc3C2=O)c(C)c1` [541E03], the “Z score (aver)” value under setting [1] is reported as 2.75. For the same compound, the Clasf entry under setting [2] is on record as “W (weak (Z score 2-3)”.

In the case of `CCCCCc1cc(O)c2c(c1)OC(C)(C)c1ccc(C)cc1-2` [503C05], the “Z score (aver)” value under setting [1] is reported as 5.93. For the same compound, the Clasf result under setting [2] was “S (strong (Z score > 5))”.

As to `Cc1cc(Br)ccc1NC(=O)CCCc1c[nH]c2ccccc12` [1520E21], the “Z score (aver)” value under setting [1] stood at 4.74. In addition, the Clasf entry under setting [2] is on record as “M (medium (Z score 3-5))”.

As for `CN(C)CCN(Cc1ccc(Cl)cc1)c1ccccn1.Cl` [1570B15], the “Z score (aver)” value under setting [1] turned out to be 8.42. The Clasf result under setting [2] was “S (strong (Z score > 5))”.

As for `C[n+]1cc2c3c(ccc2c2ccc4cc5c(cc4c21)OCO5)OCO3.O=[N+]([O-])[O-]` [501I17], the “Z score (aver)” value under setting [1] came to 4.78. Further, the Clasf entry under setting [2] is given as “M (medium (Z score 3-5))”.

On to `CC(C)c1ccc(NC(=O)N2CCCN(CCOc3ccccc3)CC2)cc1` [1520P16], for which the “Z score (aver)” value under setting [1] was 2.72. Moreover, the Clasf entry under setting [2] is “W (weak (Z score 2-3)”.

For the compound `O=C(CSC1=NNC(c2ccccn2)S1)c1cccc(F)c1` (stereo not drawn) [1520D17], the “Z score (aver)” value under setting [1] was 4.91. The Clasf entry under setting [2] was “M (medium (Z score 3-5))”.

In the case of `Cc1c2ccncc2c(C)c2c1[nH]c1ccccc12` [1569L10], the “Z score (aver)” value under setting [1] was 2.59. The Clasf result under setting [2] is given as “W (weak (Z score 2-3)”.

`Cc1cc2c(C(C)C)c(O)c(O)c(C=O)c2c(O)c1-c1c(C)cc2c(C(C)C)c(O)c(O)c(C=O)c2c1O` [1570G15]: under setting [1], the “Z score (aver)” value was determined as 3.54. Under setting [2], the Clasf entry is reported as “M (medium (Z score 3-5))”.

For the compound `Cc1nc(NCCc2c[nH]c3ccccc23)cc(-c2ccc(F)cc2)n1` [1306E02], the “Z score (aver)” value under setting [1] was found to be 3.02. In addition, under setting [2], the Clasf result is given as “M (medium (Z score 3-5))”.

`C=C1c2c(Cl)ccc(O)c2C(=O)C2=C(O)C3(O)C(=O)C(C(N)=O)=C(O)C(N(C)C)C3C(O)C12.O=C(O)c1cc(S(=O)(=O)O)ccc1O` (stereo not drawn) [1569K14]: under setting [1], the “Z score (aver)” value is 2.51. Also, the Clasf result under setting [2] is “W (weak (Z score 2-3)”.

With `COC(=O)c1c(-c2c(Cl)cccc2Cl)noc1C=CN(C)C` [1306I21], under setting [1], the “Z score (aver)” value was found to be 4.49. Also, the Clasf result under setting [2] is “M (medium (Z score 3-5))”.

Regarding `COc1ccc(-c2nc3c4ccccc4c4ccccc4c3[nH]2)c(OC)c1` [1160C13], the “Z score (aver)” value under setting [1] is reported as 2.90. For the same compound, the Clasf result under setting [2] is “W (weak (Z score 2-3)”.

On to `CC(C)(C)c1ccc(S(=O)(=O)Nc2ccc3[nH]c(C(C)(C)C)cc3c2)cc1` [521I15], for which the “Z score (aver)” value under setting [1] is 7.27. Also, the Clasf result under setting [2] is “S (strong (Z score > 5))”.

As for `O=C(c1ccc(Cl)nc1)N(Cc1ccc(-c2cccs2)s1)C1CC1` [541H08], the “Z score (aver)” value under setting [1] came to 2.92. Further, the Clasf entry under setting [2] was “W (weak (Z score 2-3)”.

For the compound `COC1CC(CC2CCC(C)C(C(C)C(=O)[O-])O2)OC2(OC(C)(C3CCC(C)(C4OC(C5OC(O)(CO)C(C)CC5C)CC4C)O3)CC2C)C1C.[Na+]` (stereo not drawn) [501K17], the “Z score (aver)” value under setting [1] was 5.95. Moreover, under setting [2], the Clasf result is reported as “S (strong (Z score > 5))”.

In the case of `NC(CO)(CO)CO.O=C(c1ccccc1)c1ccc2n1CCC2C(=O)O` (stereo not drawn) [502J18], the “Z score (aver)” value under setting [1] is listed as 2.67. Further, under setting [2], the Clasf entry is given as “W (weak (Z score 2-3)”.

With `O=C1c2ccccc2C(=O)N1Oc1ccc([N+](=O)[O-])c([N+](=O)[O-])c1` [669F07], under setting [1], the “Z score (aver)” value worked out at 3.84. In addition, under setting [2], the Clasf entry is “M (medium (Z score 3-5))”.

With `COC1=CC(C)=CC(C)C(O)C(C)CC(C)=CC=CC(OC)C(C(C)C(O)C(C)C2CC(O)C(C)C(C(C)C)O2)OC1=O` (stereo not drawn) [1361J12], the “Z score (aver)” value under setting [1] was 4.65. Further, the Clasf entry under setting [2] is given as “M (medium (Z score 3-5))”.

As for `COc1ccc(CCN2CCC(Nc3nc4ccccc4n3Cc3ccc(F)cc3)CC2)cc1` [1568K14], the Clasf entry is listed as “S (key: S: strong (Z score > 5); M: medium (Z score 3-5); W: weak (Z score 2-3)” and the “Z score (aver)” value was 8.76.

In the case of `COc1ccc(S(=O)(=O)Nc2cccc3cc(C(=O)NCc4ccc(Cl)cc4)[nH]c23)cc1` [522N16], under setting [1], the “Z score (aver)” value turned out to be 5.29. Moreover, the Clasf entry under setting [2] was “S (strong (Z score > 5))”.

As for `N#Cc1cc2c(nc1SCC(=O)Nc1ccccc1F)CCCCC2` [1158J04], under setting [1], the “Z score (aver)” value is 2.92. Besides, under setting [2], the Clasf result is given as “W (weak (Z score 2-3)”.

Regarding `C=C(NC(=O)C(=C)NC(=O)c1csc(C2=NC3c4csc(n4)C4NC(=O)c5csc(n5)C(C(C)(O)C(C)O)NC(=O)C5CSC(=N5)C(=CC)NC(=O)C(C(C)O)NC(=O)c5csc(n5)C3(CC2)NC(=O)C(C)NC(=O)C(=C)NC(=O)C(C)NC(=O)C(C(C)CC)NC2C=Cc3c(C(C)O)cc(nc3C2O)C(=O)OC4C)n1)C(N)=O` (stereo not drawn) [1569J05], the “Z score (aver)” value under setting [1] turned out to be 5.60. In addition, under setting [2], the Clasf result is “S (strong (Z score > 5))”.

Consider `CCN(C(=O)c1ccc(C(C)(C)C)cc1)c1ccc(Sc2nc(C)cc(C)n2)cc1` [519P04], for which the “Z score (aver)” value under setting [1] was 5.16. For the same compound, under setting [2], the Clasf entry is given as “S (strong (Z score > 5))”.

With `Nc1ncn(C2OC(CO)C(O)C2O)c(=O)n1` (stereo not drawn) [1570N13], the “Z score (aver)” value under setting [1] came to 7.46. In addition, the Clasf entry under setting [2] is reported as “S (strong (Z score > 5))”.

As for `COc1ccc(CC(N)C(=O)NC2C(CO)OC(n3cnc4c(N(C)C)ncnc43)C2O)cc1.Cl` (stereo not drawn) [1569O22], the “Z score (aver)” value under setting [1] was 7.86. For the same compound, the Clasf entry under setting [2] is “S (strong (Z score > 5))”.

In the case of `COc1ccc(SC(=O)c2cc(C)n(Cc3c(Cl)cccc3Cl)n2)cc1` [1520J06], the “Z score (aver)” value under setting [1] was found to be 3.39. Also, under setting [2], the Clasf result was “M (medium (Z score 3-5))”.

As for `CCCCC(CC)CNC(=N)NC(=N)NCCCCCCNC(=N)NC(=N)NCC(CC)CCCC.Cl` (stereo not drawn) [502E04], the “Z score (aver)” value under setting [1] was 9.20. Under setting [2], the Clasf result is given as “S (strong (Z score > 5))”.

With `O=C(CCCN1CCC2(CC1)C(=O)NCN2c1ccccc1)c1ccc(F)cc1` [1568J18], the “Z score (aver)” value under setting [1] is on record as 4.37. In addition, the Clasf result under setting [2] is “M (medium (Z score 3-5))”.

For the compound `COc1ccc(Cc2nccc3cc(OC)c(OC)cc23)cc1OC.Cl` [1569F08], the “Z score (aver)” value under setting [1] is recorded as 2.60. The Clasf result under setting [2] is “W (weak (Z score 2-3)”.

For `COc1ccc(C2=NN3C(C2)c2cc(Cl)ccc2OC32CCCC2)cc1` (stereo not drawn) [1157E14], the “Z score (aver)” value under setting [1] is recorded as 4.67. In addition, the Clasf entry under setting [2] is “M (medium (Z score 3-5))”.

Regarding `COc1cc(C2c3cc4c(cc3C(OC3OC5COC(C)OC5C(O)C3O)C3COC(=O)C23)OCO4)cc(OC)c1O` (stereo not drawn) [1569O13], the “Z score (aver)” value under setting [1] was found to be 6.74. The Clasf result under setting [2] is given as “S (strong (Z score > 5))”.

`N#CC1(C#N)C(c2cccc(I)c2)C(C(N)=O)N2C=Cc3ccccc3C21` (stereo not drawn) [669M10]: under setting [1], the “Z score (aver)” value stood at 6.90. For the same compound, under setting [2], the Clasf result is on record as “S (strong (Z score > 5))”.

Consider `COC[C@H]1OC(=O)c2coc3c2[C@@]1(C)C1=C(C3=O)[C@@H]2CCC(=O)[C@@]2(C)C[C@H]1OC(C)=O` [Wortmannin, reference compound], for which, where the note is “LNCaP-S14, ~5 to 35 μM, 18 h”, the “hit in primary screen (increased percentage of p27 positive cells)” value is “scored positive”.

On to `CCC(C(=O)C(C)C(O)C(C)CCc1ccc(C)c(O)c1C(=O)[O-])C1OC(CC)(C2CCC(O)(CC)C(C)O2)CC1C.[Na+]` (stereo not drawn) [1570F17], for which the “Z score (aver)” value under setting [1] turned out to be 8.04. Moreover, the Clasf result under setting [2] is given as “S (strong (Z score > 5))”.

With `Cc1ccc(-c2cc(C(F)(F)F)nn2-c2ccc(S(N)(=O)=O)cc2)cc1` [502M15], the “Z score (aver)” value under setting [1] is 2.59. Under setting [2], the Clasf result is recorded as “W (weak (Z score 2-3)”.

On to `CNc1ccc2oc(CC3OC4(CCC3C)OC(C(C)C(=O)c3ccc[nH]3)C(C)CC4C)nc2c1C(=O)O` (stereo not drawn) [1361O18], for which the “Z score (aver)” value under setting [1] was 8.06. The Clasf entry under setting [2] is on record as “S (strong (Z score > 5))”.

On to `Clc1ccc(COC(Cn2ccnc2)c2ccc(Cl)cc2Cl)cc1.O=[N+]([O-])O` (stereo not drawn) [1568N10], for which the “Z score (aver)” value under setting [1] was 2.46. Moreover, the Clasf result under setting [2] is given as “W (weak (Z score 2-3)”.

For the compound `Cc1ccc(C)c2c1-c1ccccc1S(=O)(=O)N2S(=O)(=O)c1ccccc1` [1160M11], the “Z score (aver)” value under setting [1] came to 2.11. Moreover, the Clasf entry under setting [2] is given as “W (weak (Z score 2-3)”.

`O=c1[nH]c2ccccc2n1C1CCN(CCCC(c2ccc(F)cc2)c2ccc(F)cc2)CC1` [1568N18]: the “Z score (aver)” value under setting [1] came to 2.26. Further, the Clasf entry under setting [2] was “W (weak (Z score 2-3)”.

`Fc1ccc(-c2cc(NCc3ccc(Cl)cc3)nc(-c3ccncc3)n2)cc1` [1306I08]: the “Z score (aver)” value under setting [1] is reported as 3.44. The Clasf result under setting [2] is “M (medium (Z score 3-5))”.

`CCCCCCSc1nnc(N)s1` [541O08]: the “Z score (aver)” value under setting [1] amounted to 8.05. The Clasf result under setting [2] was “S (strong (Z score > 5))”.

With `Cc1cc(C)nc(N2CCN(C(=O)C(c3ccccc3)c3ccccc3)CC2)n1` [521H09], the “Z score (aver)” value under setting [1] stood at 2.35. Besides, the Clasf entry under setting [2] is listed as “W (weak (Z score 2-3)”.

For the compound `Clc1ccc(COC(Cn2ccnc2)c2ccc(Cl)cc2Cl)c(Cl)c1` (stereo not drawn) [1568M15], the Clasf entry was “W (key: S: strong (Z score > 5); M: medium (Z score 3-5); W: weak (Z score 2-3)” and the “Z score (aver)” value was determined as 2.54.

For `CN(C)CCCN1c2ccccc2CCc2ccc(Cl)cc21.Cl` [1568F20], the “Z score (aver)” value under setting [1] was found to be 2.49. Further, the Clasf entry under setting [2] was “W (weak (Z score 2-3)”.

Regarding `CC12CCC(O)CC1CCC1C2CC(O)C2(C)C(C3=CC(=O)OC3)CCC12O` (stereo not drawn) [1570B08], under setting [1], the “Z score (aver)” value worked out at 2.80. In addition, the Clasf entry under setting [2] is on record as “W (weak (Z score 2-3)”.

Consider `N#CC(C#N)=NNc1ccc(OC(F)(F)F)cc1` [1362E11], for which the Clasf result is reported as “S (key: S: strong (Z score > 5); M: medium (Z score 3-5); W: weak (Z score 2-3)” and the “Z score (aver)” value came out at 6.18.

`CCNC(=O)C=C1NC(C)(C)Cc2c1ccc1ccccc21` [1160G14]: the “Z score (aver)” value under setting [1] is listed as 2.31. The Clasf result under setting [2] was “W (weak (Z score 2-3)”.

As to `CC(C)(C)c1cc2cc(NC3CCN(C(=O)c4ccccc4Cl)CC3)ccc2[nH]1` [520N14], the “Z score (aver)” value under setting [1] worked out at 2.16. In addition, under setting [2], the Clasf entry is recorded as “W (weak (Z score 2-3)”.

The values above are taken from article PMC3025922 (BMC Biology, 2010).
